# According to paper PMC9246773, “Assessing the Activity of Antimicrobial Peptides Against Common Marine Bacteria Located in Rotifer (Brachionus plicatilis) Cultures” (Probiotics and Antimicrobial Proteins, 2022):
# Non-standard residues stand in square brackets, D forms with d. Residues, ends and D or L forms follow the SMILES beside them.
# Tests used:
# [1] = system: Escherichia coli (ATCC 25922); type: cell-based; conditions: ATCC 25922, 48 h
# In short: (§1)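 Broth microdilution MIC of antimicrobial peptides in Mueller–Hinton broth made with artificial seawater (25‰) or deionised water (0‰), with or without acetic acid/BSA peptide diluent. Inoculum about 5 × 10^5 CFU mL^-1 from 0.5 McFarland suspensions; peptides 0.125 - 65µg mL^-1; 25 °C for 48 h; MIC = lowest concentration without visible growth.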
# [2] = system: Shewanella sp.; type: cell-based; conditions: 48 h
# In short: as §1
# [3] = system: Vibrio alginolyticus; type: cell-based; conditions: 48 h
# In short: as §1
# [4] = system: Vibrio harveyi (ATCC 35084); type: cell-based; conditions: ATCC 35084, 48 h
# In short: as §1
# [5] = system: Vibrio harveyi; type: cell-based; conditions: 48 h
# In short: as §1
# [6] = system: Vibrio rotiferianus; type: cell-based; conditions: 48 h
# In short: as §1
# [7] = system: Vibrio scophthalmi; type: cell-based; conditions: 48 h
# In short: as §1
# [8] = system: Escherichia coli (ATCC 25922); type: cell-based; conditions: ATCC 25922, 48 h; remark: listed apart in the source
# In short: (§2)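 Broth microdilution MIC of peptides in MHB at 0‰ or 25‰ salinity (artificial sea salts); T. discolor in diluted MHB (1:7 with 25‰ seawater), and T. discolor and Pseudoalteromonas not tested at 0‰. Twofold dilutions 0.125–65 µg mL^−1, some in acetic acid/BSA; inoculum ~5 × 10^5 CFU mL^−1; duplicates.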
# [9] = system: Pseudoalteromonas sp.; type: cell-based; conditions: 48 h
# In short: as §2
# [10] = system: Shewanella sp.; type: cell-based; conditions: 48 h; remark: listed apart in the source
# In short: as §2
# [11] = system: Tenacibaculum discolor; type: cell-based; conditions: 48 h
# In short: as §2
# [12] = system: Vibrio alginolyticus; type: cell-based; conditions: 48 h; remark: listed apart in the source
# In short: as §2
# [13] = system: Vibrio harveyi (ATCC 35084); type: cell-based; conditions: ATCC 35084, 48 h; remark: listed apart in the source
# In short: as §2
# [14] = system: Vibrio harveyi; type: cell-based; conditions: 48 h; remark: listed apart in the source
# In short: as §2
# [15] = system: Vibrio rotiferianus; type: cell-based; conditions: 48 h; remark: listed apart in the source
# In short: as §2
# [16] = system: Vibrio scophthalmi; type: cell-based; conditions: 48 h; remark: listed apart in the source
# In short: as §2
# [17] = Test whether the AMPs precipitated in MHB and required acetic acid adjustments; type: physicochemical; conditions: MIC two or more dilutions higher without acetic acid than with acetic acid = requires acetic acid adjustments; MHB 0‰
# Experimental: The protocol was followed to determine the minimum inhibitory concentration (MIC) of the selected peptides. Two MIC assays were performed, firstly to determine whether each peptide precipitated in MHB and thereby required acetic acid adjustments (supplementary materials) and secondly, to determine the antimicrobial activity of each peptide in artificial seawater (25‰). Peptide stock solutions (1.3 mg mL^−1) were made by diluting the peptides in sterile deionised water. MHB was made with deionised water to reach a concentration of approaching 0‰ and artificial sea salts (Sigma-Aldrich® S9883) to reach a salinity of 25‰.
# A broth microdilution protocol was followed to test whether the AMPs precipitated in MHB. The isolates T. discolor and Pseudoalteromonas were excluded from this assay because they required marine salts for growth. The peptides HHC10 and HHC36 previously required acetic acid adjustments according to [63] and were not trialled in this assay. To test if peptides required acetic acid, each peptide was diluted 1:2 in acetic acid (0.02% acetic acid w/v, containing 0.4% BSA) solution. […] The 96-well plates were incubated at 25 °C and read at 24 and 48 hours. The MIC was visually determined using a Sensititre™ Vizion™ Digital MIC Viewing System (Thermo Scientific™), and the lowest AMP concentration that had no bacterial growth was recorded as the MIC after 48 hours. […]
# [18] = system: MRSA and P. aeruginosa bacterial infections; conditions: MRSA and P. aeruginosa infections in mice and nematodes, respectively; ref [23], [64], [65]; cited from earlier work
# Experimental: The MIC assay under high salt concentration identified these peptides as being effective against V. rotiferianus and T. discolor at a high peptide concentration (65 µg mL^−1), however, the two bacterial species were not identified in the control rotifer culture, and the reduction of their presence cannot be quantified. In relation to other AMP research, the majority of AMPs are currently teste ...
smiles,measurement,setting,value
CC[C@@H](C)[C@@H](NC(=O)[C@@H](C)NC(=O)[C@@H](CCCNC(=N)N)NC(=O)[C@@H](Cc1c[nH]c2ccccc12)NC(=O)[C@@H](CCC(N)=O)NC(=O)[C@H](N)C(C)C)C(=O)N[C@H](CCCNC(=N)N)C(=O)N[C@@H](C(=O)N[C@H](CCCNC(=N)N)C(=O)N[C@@H](C(=O)N[C@@H](C(=O)N[C@H](CCCNC(=N)N)C(N)=O)[C@H](C)CC)C(C)C)C(C)C [DJK5] (H-[dV][dQ][dW][dR][dA][dI][dR][dV][dR][dV][dI][dR]-NH2; N-terminus and C-terminus assumed),"MIC E. coli ATCC 25922, Acetic",[1],4.06 µg/mL
same,"MIC E. coli ATCC 25922, No acetic",[1],8.13 µg/mL
same,"MIC Shewanella sp., Acetic",[2],1.02 µg/mL
same,"MIC Shewanella sp., No acetic",[2],1.02 µg/mL
same,"MIC V. alginolyticus, Acetic",[3],4.06 µg/mL
same,"MIC V. alginolyticus, No acetic",[3],4.06 µg/mL
same,"MIC V. harveyi ATCC 35084, Acetic",[4],4.06 µg/mL
same,"MIC V. harveyi ATCC 35084, No acetic",[4],2.03 µg/mL
same,"MIC V. harveyi, Acetic",[5],2.03 µg/mL
same,"MIC V. harveyi, No acetic",[5],4.06 µg/mL
same,"MIC V. rotiferianus, Acetic",[6],1.02 µg/mL
same,"MIC V. rotiferianus, No acetic",[6],1.02 µg/mL
same,"MIC V. scophthalmi, Acetic",[7],0.51 µg/mL
same,"MIC V. scophthalmi, No acetic",[7],0.51 µg/mL
same,"MIC E. coli ATCC 25922, salinity 0‰",[8],2.03 µg/mL
same,"MIC E. coli ATCC 25922, salinity 25‰",[8],> 65 µg/mL
same,"MIC Pseudoalteromonas sp., salinity 25‰",[9],> 65 µg/mL
same,"MIC Shewanella sp., salinity 0‰",[10],2.03 µg/mL
same,"MIC Shewanella sp., salinity 25‰",[10],> 65 µg/mL
same,"MIC T. discolor, salinity 25‰",[11],> 65 µg/mL
same,"MIC V. alginolyticus, salinity 0‰",[12],4.06 µg/mL
same,"MIC V. alginolyticus, salinity 25‰",[12],> 65 µg/mL
same,"MIC V. harveyi ATCC 35084, salinity 0‰",[13],2.03 µg/mL
same,"MIC V. harveyi ATCC 35084, salinity 25‰",[13],> 65 µg/mL
same,"MIC V. harveyi, salinity 0‰",[14],4.06 µg/mL
same,"MIC V. harveyi, salinity 25‰",[14],> 65 µg/mL
same,"MIC V. rotiferianus, salinity 0‰",[15],1.02 µg/mL
same,"MIC V. rotiferianus, salinity 25‰",[15],> 65 µg/mL
same,"MIC V. scophthalmi, salinity 0‰",[16],0.51 µg/mL
same,"MIC V. scophthalmi, salinity 25‰",[16],> 65 µg/mL
same,requirement for acetic acid (precipitation in MHB),[17],did not
same,reduction of bacterial infections in terrestrial organisms,[18],successfully reduced
